Data as given in the supplement of paper PMC7840683.
Counter-ions that a name gives are not always drawn. ± gives the standard deviation of the averaged measurements.

Test system: HepaRG
Test: LDH release cytotoxicity, % of total lysis control; higher = more cytotoxic
Conditions: 48 h
Procedure, shortened: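 HepaRG cells from a single lot were plated on collagen I-coated 96-well plates and treated in duplicate for 48 h with eight-point half-log series of test chemicals, starting at 100 µM, in serum-free induction medium containing 0.5% DMSO. Total lysis wells were given 0.1% Triton X. LDH released into 50 µL of spent medium was measured as resorufin fluorescence with CytoTox-ONE on a Tecan Safire. Percent cytotoxicity was normalized to on-plate vehicle and total lysis controls and then averaged across duplicates.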

Row | SMILES | LDH release cytotoxicity (0.03162 µM) | LDH release cytotoxicity (0.1 µM) | LDH release cytotoxicity (0.3162278 µM) | LDH release cytotoxicity (1 µM) | LDH release cytotoxicity (3.16228 µM) | LDH release cytotoxicity (10 µM) | LDH release cytotoxicity (31.6228 µM) | LDH release cytotoxicity (100 µM) | further results
1 | NC(=O)N(O)C1C=CC(Oc2cccc(Oc3ccc(F)cc3)c2)C1 (stereo not drawn) | -0.313 ± 0.089% | -0.862 ± 0.21% | -1.12 ± 0.51% | -0.265 ± 0.5% | -0.557 ± 0.086% | -1.09 ± 0.79% | 1.56 ± 0.69% | 19.5 ± 2.4% | 
2 | N[C@@H](Cc1c[nH]c2ccccc12)C(=O)O [L-Tryptophan] | -1.94 ± 0.23% | -2.65 ± 0.14% | -1.1 ± 0.19% | -1.86 ± 0.22% | -2.03 ± 0.27% | -1.29 ± 0.26% | -1.37 ± 0.3% | -1.29 ± 0.24% | 
3 | CSc1ccc(Oc2ccc(S(N)(=O)=O)cc2CN(C)C)cc1C | -1.53 ± 0.56% | -2.12 ± 0.38% | -3.24 ± 1% | -3.17 ± 0.95% | -2.65 ± 0.17% | -1.44 ± 0.31% | -1.38 ± 0.35% | 13.7 ± 1.8% | 
4 | COc1ccc(O)c(C(C)(C)C)c1 [2-tert-Butyl-4-methoxyphenol] | -1.55 ± 0.4% | -1.18 ± 0.12% | 0.0233 ± 0.91% | 0.0291 ± 1.1% | 0.0384 ± 1.3% | 0.94 ± 1.4% | 1.15 ± 1.3% | 2.22 ± 1.8% | 
5 | O=C(Oc1ccccc1)c1cccc(C(=O)Oc2ccccc2)c1 [Diphenyl isophthalate] | -0.961 ± 0.23% | -0.451 ± 0.024% | -0.0836 ± 0.51% | -0.13 ± 0.26% | -0.548 ± 1.1% | -0.00904 ± 1.2% | 0.842 ± 0.83% | 2.16 ± 1.3% | 
6 | N#CC(Br)Br [Dibromoacetonitrile] | -2.24 ± 0.96% | -3.22 ± 0.87% | -2.74 ± 0.21% | -2.98 ± 0.13% | -2.65 ± 0.41% | -2.89 ± 1.6% | -2.1 ± 0.82% | -0.937 ± 0.31% | 
7 | CCCCCCCCCCCCCCCCOS(=O)(=O)O [Sodium hexyldecyl sulfate] |  |  |  |  |  |  |  |  | LDH release cytotoxicity (0.01581 µM): -0.927 ± 0.59%; LDH release cytotoxicity (0.05 µM): -0.892 ± 0.52%; LDH release cytotoxicity (0.1581139 µM): -1.25 ± 0.18%; LDH release cytotoxicity (0.5 µM): -1.53 ± 0.15%; LDH release cytotoxicity (1.5811388 µM): -0.623 ± 0.48%; LDH release cytotoxicity (5 µM): -0.974 ± 0.097%; LDH release cytotoxicity (15.8114 µM): -0.978 ± 0.78%; LDH release cytotoxicity (50 µM): 10.6 ± 1.9%
8 | CCCCCCCCCCCCOS(=O)(=O)O [Sodium dodecyl sulfate] | -0.308 ± 0.48% | -0.693 ± 0.47% | -1.14 ± 0.2% | -0.62 ± 0.91% | -1.89 ± 0.58% | -1.05 ± 0.87% | 0.0441 ± 0.35% | 10.1 ± 0.28% | 
9 | CC1(C)CCC(=Cc2ccc(Cl)cc2)C1(O)Cn1cncn1 (stereo not drawn) [Triticonazole] |  |  |  |  |  |  |  |  | LDH release cytotoxicity (0.0314647 µM): -0.271 ± 1.9%; LDH release cytotoxicity (0.0995 µM): -0.849 ± 0.067%; LDH release cytotoxicity (0.3146466 µM): -0.205 ± 0.74%; LDH release cytotoxicity (0.995 µM): -1.22 ± 0.81%; LDH release cytotoxicity (3.14647 µM): -0.364 ± 0.038%; LDH release cytotoxicity (9.95 µM): 0.229 ± 0.84%; LDH release cytotoxicity (31.4647 µM): 1.76 ± 0.041%; LDH release cytotoxicity (99.5 µM): 5.55 ± 0.43%
10 | CCCCN(CCCC)CCCC [Tributylamine] | -2.12 ± 0.98% | -1.33 ± 1.8% | -2.67 ± 0.73% | -2.57 ± 1% | -2.21 ± 0.52% | -2.383 ± 0.0034% | -2.97 ± 0.18% | 3.29 ± 1.9% | 
11 | Clc1ccc(Cl)c(Cl)c1 [1,2,4-Trichlorobenzene] | -0.83 ± 0.22% | -0.799 ± 0.65% | -1.05 ± 0.33% | -0.848 ± 0.19% | -1.46 ± 0.75% | -0.626 ± 0.011% | -0.776 ± 0.65% | -0.785 ± 0.46% | 
12 | CCOC(=O)C(C)Oc1ccc(Oc2cnc3cc(Cl)ccc3n2)cc1 (stereo not drawn) [Quizalofop-ethyl] |  |  |  |  |  |  |  |  | LDH release cytotoxicity (0.0272 µM): -0.606 ± 1.1%; LDH release cytotoxicity (0.086 µM): -0.619 ± 0.15%; LDH release cytotoxicity (0.271956 µM): -0.991 ± 0.67%; LDH release cytotoxicity (0.86 µM): -1.42 ± 0.21%; LDH release cytotoxicity (2.71956 µM): -0.919 ± 0.39%; LDH release cytotoxicity (8.6 µM): -0.541 ± 0.075%; LDH release cytotoxicity (27.1956 µM): -0.469 ± 0.41%; LDH release cytotoxicity (86 µM): -0.0561 ± 0.018%
13 | CC(C1CC1)C(O)(Cn1cncn1)c1ccc(Cl)cc1 (stereo not drawn) [Cyproconazole] |  |  |  |  |  |  |  |  | LDH release cytotoxicity (0.0314647 µM): -2.83 ± 0.84%; LDH release cytotoxicity (0.0995 µM): -2.41 ± 1.4%; LDH release cytotoxicity (0.3146466 µM): -3.23 ± 0.48%; LDH release cytotoxicity (0.995 µM): -3.32 ± 0.63%; LDH release cytotoxicity (3.14647 µM): -3.1 ± 0.6%; LDH release cytotoxicity (9.95 µM): -2.59 ± 0.26%; LDH release cytotoxicity (31.4647 µM): -2.12 ± 1.1%; LDH release cytotoxicity (99.5 µM): 6.32 ± 1.1%
14 | CC12CCC(=O)C=C1CCC1C2CCC2(C)C1CCC2(C)O (stereo not drawn) [17-Methyltestosterone] | -1.79 ± 1.4% | -1.97 ± 0.62% | -1.97 ± 1.4% | -1.95 ± 2.3% | -2.67 ± 0.81% | -2.51 ± 1.4% | -2.52 ± 1.9% | -1.06 ± 1.5% | 
15 | O=C(CCl)c1ccccc1 [2-Chloroacetophenone] | -1 ± 0.077% | -0.706 ± 0.44% | 0.0478 ± 0.81% | -0.336 ± 0.2% | -0.414 ± 0.23% | 0.0717 ± 0.49% | 1.4 ± 0.058% | 17.7 ± 0.94% | 
16 | CCNS(=O)(=O)C(F)(F)C(F)(F)C(F)(F)C(F)(F)C(F)(F)C(F)(F)C(F)(F)C(F)(F)F [N-Ethylperfluorooctanesulfonamide] | -0.318 ± 1.2% | -0.363 ± 0.53% | -1.47 ± 0.29% | -0.894 ± 0.41% | -1.27 ± 0.88% | -0.5 ± 0.13% | 0.958 ± 1.5% | 2.37 ± 1% | 
17 | CC(C)Oc1cc(-n2nc(C(C)(C)C)oc2=O)c(Cl)cc1Cl [Oxadiazon] | -0.101 ± 1% | -0.564 ± 0.81% | -0.449 ± 1.2% | 0.329 ± 0.022% | 0.576 ± 0.019% | 0.044 ± 0.0027% | 0.449 ± 0.49% | 13.02 ± 0.12% | 
18 | ClC1=C(Cl)C2(Cl)C3C4OC4C(Cl)C3C1(Cl)C2(Cl)Cl (stereo not drawn) [Heptachlor epoxide B] | -4.87 ± 0.88% | -4.16 ± 0.083% | -4.44 ± 0.44% | -3.99 ± 0.81% | -3.88 ± 0.66% | -3.4 ± 0.55% | -3.14 ± 0.91% | -0.787 ± 0.59% | 
19 | CNC(=O)CSP(=S)(OC)OC [Dimethoate] | 0.0142 ± 0.81% | 0.0233 ± 0.62% | -0.779 ± 0.49% | -1.24 ± 0.51% | -0.679 ± 0.19% | -0.364 ± 0.63% | 0.327 ± 0.06% | 0.574 ± 0.89% | 
20 | CC(C=CC1=C(C)CCCC1(C)C)=CC=CC(C)=CC(=O)O [all-trans-Retinoic acid] | -2.15 ± 0.83% | -2.16 ± 0.56% | -1.95 ± 0.22% | -2.25 ± 1.9% | -2.56 ± 0.86% | -1.87 ± 0.4% | -1.86 ± 2% | 2.13 ± 3% | 
21 | Clc1ccc(C(c2ccc(Cl)cc2)C(Cl)(Cl)Cl)cc1 [Dichlorodiphenyltrichloroethane] | 0.0415 ± 1% | 0.0911 ± 1% | 0.015 ± 0.3% | 0.105 ± 0.45% | 0.853 ± 0.39% | 0.81 ± 0.52% | 0.658 ± 0.99% | 1.05 ± 0.28% | 
22 | O=C1N=CC(F)C(=O)N1 (stereo not drawn) [5-Fluorouracil] | -1.55 ± 0.12% | -3.9 ± 2.7% | -0.836 ± 0.12% | -1.84 ± 0.21% | -1.66 ± 0.052% | -1.56 ± 0.38% | -1.98 ± 0.46% | 8.44 ± 1.2% | 
23 | CN(C)CCCN1c2ccccc2Sc2ccc(Cl)cc21 [Chlorpromazine hydrochloride] |  | -1.97 ± 1.4% |  | -2.9 ± 0.0051% | -1.62 ± 1.7% | -1.31 ± 0.15% | 10.7 ± 2% | 77.6 ± 2.4% | LDH release cytotoxicity (0.031623 µM): -1.42 ± 0.91%; LDH release cytotoxicity (0.316228 µM): -1.98 ± 0.49%
24 | O=C(NS(=O)(=O)C=Cc1ccccc1)c1ccc(F)cc1Cl | -0.138 ± 0.18% | -1.32 ± 0.77% | -0.79 ± 0.41% | -2.23 ± 0.62% | -1.4 ± 0.85% | -0.621 ± 0.72% | -0.552 ± 1.1% | 1.91 ± 1.4% | 
25 | CCNc1ccccc1 [N-Ethylaniline] | -1.05 ± 0.66% | -1.82 ± 1.1% | -0.782 ± 1.1% | -2.09 ± 1.1% | -0.812 ± 0.9% | -0.444 ± 0.085% | -0.781 ± 0.36% | 0.942 ± 0.42% | 
26 | CC(=O)C1CCC2C3CCC4=CC(=O)CCC4(C)C3CCC12C (stereo not drawn) [Progesterone] | 0.112 ± 0.97% | -0.0962 ± 0.055% | -0.597 ± 1.8% | -0.509 ± 0.91% | -1.13 ± 0.52% | -2 ± 0.72% | 12.6 ± 0.78% | 55.9 ± 1.6% | 
